Test results as given in PubChem BioAssay AID1963843 (Molecular Pharmacology Branch, DTP, NCI, 2024).

System: 616215-338-R-J1-PDC complex spheroid viability
Assay: Anticancer human tumor 616215-338-R-J1-PDC patient-derived colon adenocarcinoma cell line growth inhibition [POLQ]
Details: for IC50: curve of first compound; for viability, T/C: stronger effect = lower value
Method in brief: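 Growth inhibition in 3D: complex spheroids (tumor PDC, HUVEC, MSC) treated with POLQ inhibitor combinations; where Cmax unknown, highest tested concentration 10 microM, except SN-38 at 1 microM.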

[1] = second compound 0.0316 µM, first compound 0.0316 µM
[2] = second compound 0.0316 µM, first compound 0.1 µM
[3] = second compound 0.0316 µM, first compound 0.316 µM
[4] = second compound 0.0316 µM, first compound 1 µM
[5] = second compound 0.1 µM, first compound 0.0316 µM
[6] = second compound 0.1 µM, first compound 0.1 µM
[7] = second compound 0.1 µM, first compound 0.316 µM
[8] = second compound 0.1 µM, first compound 1 µM
[9] = second compound 0.316 µM, first compound 0.0316 µM
[10] = second compound 0.316 µM, first compound 0.1 µM
[11] = second compound 0.316 µM, first compound 0.316 µM
[12] = second compound 0.316 µM, first compound 1 µM
[13] = second compound 1 µM, first compound 0.0316 µM
[14] = second compound 1 µM, first compound 0.1 µM
[15] = second compound 1 µM, first compound 0.316 µM
[16] = second compound 1 µM, first compound 1 µM
[17] = second compound 3.16 µM, first compound 0.0316 µM
[18] = second compound 3.16 µM, first compound 0.1 µM
[19] = second compound 3.16 µM, first compound 0.316 µM
[20] = second compound 3.16 µM, first compound 1 µM
[21] = second compound 10 µM, first compound 0.0316 µM
[22] = second compound 10 µM, first compound 0.1 µM
[23] = second compound 10 µM, first compound 0.316 µM
[24] = second compound 10 µM, first compound 1 µM
[25] = second compound 0.0316 µM, first compound 3.16 µM
[26] = second compound 0.0316 µM, first compound 10 µM
[27] = second compound 0.1 µM, first compound 3.16 µM
[28] = second compound 0.1 µM, first compound 10 µM
[29] = second compound 0.316 µM, first compound 3.16 µM
[30] = second compound 0.316 µM, first compound 10 µM
[31] = second compound 1 µM, first compound 3.16 µM
[32] = second compound 1 µM, first compound 10 µM
[33] = second compound 3.16 µM, first compound 3.16 µM
[34] = second compound 3.16 µM, first compound 10 µM
[35] = second compound 10 µM, first compound 3.16 µM
[36] = second compound 10 µM, first compound 10 µM
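Also: spheroids exposed to compounds for one week before readout.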
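For viability, T/C in this document: percent viability relative to DMSO vehicle wells taken as 100%.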

COc1cccc(OCCCN)c1-c1cc(Nc2cnc(C#N)cn2)n[nH]1 + COC1C(OC(N)=O)C(O)C(Oc2ccc3c(O)c(NC(=O)c4ccc(O)c(CC=C(C)C)c4)c(=O)oc3c2C)OC1(C)C
IC50 (second compound 0.0316 µM): > 1000 nM
IC50 (second compound 0.1 µM): > 1000 nM
IC50 (second compound 0.316 µM): > 1000 nM
IC50 (second compound 1 µM): > 1000 nM
IC50 (second compound 3.16 µM): > 1000 nM
IC50 (second compound 10 µM): 866 nM
viability, T/C (second compound 0.0316 µM, first compound 0.00316 µM): 95.7%
viability, T/C (second compound 0.0316 µM, first compound 0.01 µM): 109%
viability, T/C [1]: 94.8%
viability, T/C [2]: 76.1%
viability, T/C [3]: 69.3%
viability, T/C [4]: 61%
viability, T/C (second compound 0.1 µM, first compound 0.00316 µM): 98.6%
viability, T/C (second compound 0.1 µM, first compound 0.01 µM): 99.3%
viability, T/C [5]: 97.8%
viability, T/C [6]: 78.8%
viability, T/C [7]: 65.1%
viability, T/C [8]: 51.7%
viability, T/C (second compound 0.316 µM, first compound 0.00316 µM): 100%
viability, T/C (second compound 0.316 µM, first compound 0.01 µM): 106%
viability, T/C [9]: 85.7%
viability, T/C [10]: 87.4%
viability, T/C [11]: 68%
viability, T/C [12]: 53.5%
viability, T/C (second compound 1 µM, first compound 0.00316 µM): 103%
viability, T/C (second compound 1 µM, first compound 0.01 µM): 101%
viability, T/C [13]: 89.2%
viability, T/C [14]: 75.3%
viability, T/C [15]: 67.2%
viability, T/C [16]: 54.2%
viability, T/C (second compound 3.16 µM, first compound 0.00316 µM): 98.8%
viability, T/C (second compound 3.16 µM, first compound 0.01 µM): 95.3%
viability, T/C [17]: 86.3%
viability, T/C [18]: 74.2%
viability, T/C [19]: 63.3%
viability, T/C [20]: 55.2%
viability, T/C (second compound 10 µM, first compound 0.00316 µM): 95.7%
viability, T/C (second compound 10 µM, first compound 0.01 µM): 97%
viability, T/C [21]: 88.1%
viability, T/C [22]: 79.8%
viability, T/C [23]: 64.4%
viability, T/C [24]: 47.9%

Nc1ccn(C2OC(CO)C(O)C2(F)F)c(=O)n1 (stereo unspecified) + COC1C(OC(N)=O)C(O)C(Oc2ccc3c(O)c(NC(=O)c4ccc(O)c(CC=C(C)C)c4)c(=O)oc3c2C)OC1(C)C
IC50 (second compound 0.0316 µM): < 31.6 nM
IC50 (second compound 0.1 µM): 65.7 nM
IC50 (second compound 0.316 µM): 65.7 nM
IC50 (second compound 1 µM): 61.7 nM
IC50 (second compound 3.16 µM): 57.9 nM
IC50 (second compound 10 µM): 59.6 nM
viability, T/C [1]: 49.3%
viability, T/C [2]: 32.9%
viability, T/C [3]: 24%
viability, T/C [4]: 35%
viability, T/C [25]: 34%
viability, T/C [26]: 30%
viability, T/C [5]: 62.5%
viability, T/C [6]: 42.8%
viability, T/C [7]: 28.5%
viability, T/C [8]: 29.1%
viability, T/C [27]: 30.1%
viability, T/C [28]: 35.3%
viability, T/C [9]: 56.9%
viability, T/C [10]: 46%
viability, T/C [11]: 26.4%
viability, T/C [12]: 27.7%
viability, T/C [29]: 32.1%
viability, T/C [30]: 32.9%
viability, T/C [13]: 60.1%
viability, T/C [14]: 42.7%
viability, T/C [15]: 24.4%
viability, T/C [16]: 23.2%
viability, T/C [31]: 32.6%
viability, T/C [32]: 29.3%
viability, T/C [17]: 64.8%
viability, T/C [18]: 39.5%
viability, T/C [19]: 23.1%
viability, T/C [20]: 27.8%
viability, T/C [33]: 30.6%
viability, T/C [34]: 30%
viability, T/C [21]: 69.3%
viability, T/C [22]: 34.6%
viability, T/C [23]: 28.5%
viability, T/C [24]: 28.1%
viability, T/C [35]: 28.4%
viability, T/C [36]: 36.5%

O=c1[nH]cc(F)c(=O)[nH]1 + COC1C(OC(N)=O)C(O)C(Oc2ccc3c(O)c(NC(=O)c4ccc(O)c(CC=C(C)C)c4)c(=O)oc3c2C)OC1(C)C
IC50 (second compound 0.0316 µM): > 10000 nM
IC50 (second compound 0.1 µM): > 10000 nM
IC50 (second compound 0.316 µM): > 10000 nM
IC50 (second compound 1 µM): > 10000 nM
IC50 (second compound 3.16 µM): > 10000 nM
IC50 (second compound 10 µM): > 10000 nM
viability, T/C [1]: 101%
viability, T/C [2]: 94.6%
viability, T/C [3]: 73.4%
viability, T/C [4]: 61.1%
viability, T/C [25]: 60.7%
viability, T/C [26]: 68.7%
viability, T/C [5]: 99.4%
viability, T/C [6]: 96.3%
viability, T/C [7]: 75.3%
viability, T/C [8]: 64.2%
viability, T/C [27]: 61%
viability, T/C [28]: 61.9%
viability, T/C [9]: 100%
viability, T/C [10]: 97.2%
viability, T/C [11]: 67.3%
viability, T/C [12]: 59.3%
viability, T/C [29]: 60%
viability, T/C [30]: 63%
viability, T/C [13]: 95.8%
viability, T/C [14]: 94.1%
viability, T/C [15]: 75.2%
viability, T/C [16]: 58.1%
viability, T/C [31]: 52.1%
viability, T/C [32]: 59%
viability, T/C [17]: 99.2%
viability, T/C [18]: 107%
viability, T/C [19]: 75.7%
viability, T/C [20]: 69.8%
viability, T/C [33]: 65.4%
viability, T/C [34]: 65.8%
viability, T/C [21]: 111%
viability, T/C [22]: 99.2%
viability, T/C [23]: 68.5%
viability, T/C [24]: 57.9%
viability, T/C [35]: 54.2%
viability, T/C [36]: 61.2%
